Experiments:
DIRAS2 = biological target: T1, DIRAS2 (Homo sapiens, UniProt Q96HU8); experiment: IP-RP-HPLC of nucleotide co-purified with Flag protein from HeLa; type: cell-based; conditions: nucleotide loaded in cells; 5 mM then 1 mM MgCl2 washes
T1 construct: Flag-tagged, dox-inducible in HeLa, anti-Flag immunopurified
T1 sequence (Q96HU8 1-196): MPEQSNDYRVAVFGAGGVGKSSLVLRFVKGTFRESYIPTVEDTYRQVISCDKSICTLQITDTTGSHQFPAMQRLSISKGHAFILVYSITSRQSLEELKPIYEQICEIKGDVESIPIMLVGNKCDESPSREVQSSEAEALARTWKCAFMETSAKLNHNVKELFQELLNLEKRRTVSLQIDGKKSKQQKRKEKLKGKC

DIRAS1 = biological target: T2, DIRAS1 (Homo sapiens, UniProt O95057); experiment: as above; type: cell-based; conditions: nucleotide loaded in cells; 5 mM then 1 mM MgCl2 washes
T2 construct: Flag-tagged, dox-inducible in HeLa, anti-Flag immunopurified
T2 sequence (O95057 1-195): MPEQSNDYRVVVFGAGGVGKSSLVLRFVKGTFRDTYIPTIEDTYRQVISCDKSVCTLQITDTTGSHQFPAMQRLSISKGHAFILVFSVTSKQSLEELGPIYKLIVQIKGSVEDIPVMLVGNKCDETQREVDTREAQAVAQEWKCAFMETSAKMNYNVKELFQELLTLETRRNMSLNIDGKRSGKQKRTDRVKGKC

GST-RHEB [1] = biological target: T3, GST-RHEB (Homo sapiens, UniProt Q15382); experiment: [3H]GDP-dissociation assay, filter binding; conditions: labelled compound; 5 μM [3H]GDP preload with 10 mM EDTA, chase 200 μM GTPγS; 5 mM MgCl2, pH 7.5, 30 °C
T3 construct: residues 1-180, N-terminal GST fusion (pCold GST) kept, E. coli, glutathione-Sepharose purified
T3 sequence (Q15382 1-180): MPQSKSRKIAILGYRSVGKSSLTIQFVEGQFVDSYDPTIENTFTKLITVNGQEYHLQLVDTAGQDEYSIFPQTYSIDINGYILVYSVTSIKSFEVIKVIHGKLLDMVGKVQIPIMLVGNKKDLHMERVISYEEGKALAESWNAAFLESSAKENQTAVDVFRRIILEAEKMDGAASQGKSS

HRAS = biological target: T4, HRAS (Homo sapiens, UniProt P01112); experiment: IP-RP-HPLC of nucleotide co-purified with Flag protein from HeLa; type: cell-based; conditions: nucleotide loaded in cells; 5 mM then 1 mM MgCl2 washes
T4 construct: Flag-tagged, dox-inducible in HeLa, anti-Flag immunopurified
T4 sequence (P01112 2-186): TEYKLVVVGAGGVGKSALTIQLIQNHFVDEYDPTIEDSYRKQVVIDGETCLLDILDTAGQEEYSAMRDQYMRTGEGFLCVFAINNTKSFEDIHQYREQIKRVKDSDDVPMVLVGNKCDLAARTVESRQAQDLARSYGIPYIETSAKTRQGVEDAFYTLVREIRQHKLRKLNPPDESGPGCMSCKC

Flag-RHEB [2] = biological target: T5, Flag-RHEB (Homo sapiens, UniProt Q15382); experiment: as above; type: cell-based; conditions: nucleotide loaded in cells; 5 mM then 1 mM MgCl2 washes
T5 construct: Flag-tagged, dox-inducible in HeLa, anti-Flag immunopurified
T5 sequence (Q15382 1-181): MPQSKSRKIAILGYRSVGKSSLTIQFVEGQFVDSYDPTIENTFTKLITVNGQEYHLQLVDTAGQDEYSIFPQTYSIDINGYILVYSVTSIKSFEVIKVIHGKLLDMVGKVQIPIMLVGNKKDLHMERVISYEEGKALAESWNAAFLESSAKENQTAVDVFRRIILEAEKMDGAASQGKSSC

GST-RHEB [3] = biological target: T6, GST-RHEB (Homo sapiens, UniProt Q15382, P37L); experiment: [3H]GDP-dissociation assay, filter binding; conditions: labelled compound; 5 μM [3H]GDP preload with 10 mM EDTA, chase 200 μM GTPγS; 5 mM MgCl2, pH 7.5, 30 °C
T6 construct: residues 1-180, N-terminal GST fusion (pCold GST) kept, E. coli, glutathione-Sepharose purified
T6 sequence (Q15382 1-180 P37L): as the sequence (Q15382 1-180) above, with P37L counted along it

Flag-RHEB [4] = biological target: T7, Flag-RHEB (Homo sapiens, UniProt Q15382, S68P); experiment: IP-RP-HPLC of nucleotide co-purified with Flag protein from HeLa; type: cell-based; conditions: nucleotide loaded in cells; 5 mM then 1 mM MgCl2 washes
T7 construct: Flag-tagged, dox-inducible in HeLa, anti-Flag immunopurified
T7 sequence (Q15382 1-181 S68P): as the sequence (Q15382 1-181) above, with S68P counted along it

GST-RHEB [5] = biological target: T8, GST-RHEB (Homo sapiens, UniProt Q15382, S68P); experiment: single-turnover GTPase assay of bound GTP by IP-RP-HPLC; type: biochemical; conditions: Flag-TSC1/2 beads (GAP); 5 mM MgCl2, pH 7.5, 30 °C
T8 construct: residues 1-180, N-terminal GST fusion (pCold GST) kept, E. coli, glutathione-Sepharose purified
T8 sequence (Q15382 1-180 S68P): as the sequence (Q15382 1-180) above, with S68P counted along it

Flag-RHEB [6] = biological target: T9, Flag-RHEB (Homo sapiens, UniProt Q15382, P37L); experiment: IP-RP-HPLC of nucleotide co-purified with Flag protein from HeLa; type: cell-based; conditions: nucleotide loaded in cells; 5 mM then 1 mM MgCl2 washes
T9 construct: Flag-tagged, dox-inducible in HeLa, anti-Flag immunopurified
T9 sequence (Q15382 1-181 P37L): as the sequence (Q15382 1-181) above, with P37L counted along it

Flag-RHEB [7] = biological target: T10, Flag-RHEB (Homo sapiens, UniProt Q15382, Q64L); experiment: as above; type: cell-based; conditions: nucleotide loaded in cells; 5 mM then 1 mM MgCl2 washes
T10 construct: Flag-tagged, dox-inducible in HeLa, anti-Flag immunopurified
T10 sequence (Q15382 1-181 Q64L): as the sequence (Q15382 1-181) above, with Q64L counted along it

GST-RHEB [8] = biological target: T3, GST-RHEB; experiment: […]GTPγS filter binding time course; conditions: labelled compound; 5 μM [35S]GTPγS, 5 mM MgCl2, pH 7.5, 30 °C

Structure (SMILES)	IP-RP-HPLC of nucleotide co-purified with Flag protein from HeLa (DIRAS2)	IP-RP-HPLC of nucleotide co-purified with Flag protein from HeLa (DIRAS1)	[3H]GDP-dissociation assay, filter binding (GST-RHEB [1])	IP-RP-HPLC of nucleotide co-purified with Flag protein from HeLa (HRAS)	IP-RP-HPLC of nucleotide co-purified with Flag protein from HeLa (Flag-RHEB [2])	[3H]GDP-dissociation assay, filter binding (GST-RHEB [3])	IP-RP-HPLC of nucleotide co-purified with Flag protein from HeLa (Flag-RHEB [4])	single-turnover GTPase assay of bound GTP by IP-RP-HPLC (GST-RHEB [5])	IP-RP-HPLC of nucleotide co-purified with Flag protein from HeLa (Flag-RHEB [6])	IP-RP-HPLC of nucleotide co-purified with Flag protein from HeLa (Flag-RHEB [7])	[35S]GTPγS filter binding time course (GST-RHEB [8])
Nc1nc2c(ncn2[C@@H]2O[C@H](COP(=O)(O)OP(=O)(O)O)[C@@H](O)[C@H]2O)c(=O)[nH]1 [GDP]	We could reproducibly quantify the amount of GDP and GTP bound to each small GTPase	We could reproducibly quantify the amount of GDP and GTP bound to each small GTPase	the dissociation rates of the WT and P37L proteins were comparable	We could reproducibly quantify the amount of GDP and GTP bound to each small GTPase	Representative chromatogram of guanine nucleotides bound to Flag-RHEB/WT in HeLa cells	the dissociation rates of the WT and P37L proteins were comparable	–	–	–	–	–
Nc1nc2c(ncn2[C@@H]2O[C@H](COP(=O)(O)OP(=O)(O)OP(=O)(O)O)[C@@H](O)[C@H]2O)c(=O)[nH]1 [GTP]	We could reproducibly quantify the amount of GDP and GTP bound to each small GTPase	We could reproducibly quantify the amount of GDP and GTP bound to each small GTPase	–	We could reproducibly quantify the amount of GDP and GTP bound to each small GTPase	–	–	both RHEB/P37L and RHEB/S68P showed increases in their GTP-bound forms	it weakly but significantly promoted that of GST-RHEB/S68P	both RHEB/P37L and RHEB/S68P showed increases in their GTP-bound forms	marked increase in the ratio of the GTP-bound form of RHEB/Q64L compared with RHEB/WT	–
Nc1nc2c(ncn2[C@@H]2O[C@H](COP(=O)(O)OP(=O)(O)OP(O)(O)=S)[C@@H](O)[C@H]2O)c(=O)[nH]1 [GTPγS]	–	–	–	–	–	–	–	–	–	–	GTPγS-binding rate of RHEB/S68P was enhanced compared with that of RHEB/WT and RHEB/P37L
